Measured values taken from the supplement of paper PMC11061612.

Key:
Assay in all cases: combination Emax (second highest fraction inhibited in the dose matrix, 72 h); higher = more inhibition; extreme values may be limits of the assay
[1] = test system: KYSE-150 (Esophageal Squamous Cell Carcinoma)
Method in brief: (§1)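 Cell lines in DMEM/F12 or RPMI with 10% FBS were plated in 1536-well plates, held 24 hours at 37°C, 5% CO2, then given two-drug dose matrices for 72 hours (DMSO typically 0.2%). Viability was read by CellTiter-Glo 2.0 luminescence and scaled as inhibition from 0 (vehicle wells) to 1 (blank wells). Combination Emax is the second-highest inhibition in the matrix; Bliss excess is observed combination effect minus expected EA + EB − EA·EB, EA and EB being single-agent effects.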

[2] = test system: LOU-NH91 (Squamous Cell Lung Carcinoma)
Method in brief: as §1

[3] = test system: BV-173 (Chronic Myelogenous Leukemia)
Method in brief: as §1

[4] = test system: KINGS-1 (Low Grade Glioma)
Method in brief: as §1

[5] = test system: EMC-BAC-2 (Non-Small Cell Lung Carcinoma)
Method in brief: as §1

[6] = test system: LC4-1 (B-Lymphoblastic Leukemia)
Method in brief: as §1

[7] = test system: KP-2 (Pancreatic Carcinoma)
Method in brief: as §1

[8] = test system: NCI-H2347 (Lung Adenocarcinoma)
Method in brief: as §1

GOTO (Neuroblastoma) = test system: GOTO (Neuroblastoma)
Method in brief: as §1

GI-1 (Glioblastoma) = test system: GI-1 (Glioblastoma)
Method in brief: as §1

[9] = test system: PF-382 (T-Lymphoblastic Leukemia)
Method in brief: as §1

[10] = test system: OVISE (Ovarian Carcinoma)
Method in brief: as §1

NH-12 (Neuroblastoma) = test system: NH-12 (Neuroblastoma)
Method in brief: as §1

[11] = test system: KYSE-50 (Esophageal Squamous Cell Carcinoma)
Method in brief: as §1

[12] = test system: NCI-H513 (Other Solid Carcinomas)
Method in brief: as §1

[13] = test system: DG-75 (Burkitt's Lymphoma)
Method in brief: as §1

[14] = test system: OCUM-1 (Gastric Carcinoma)
Method in brief: as §1

[15] = test system: VMRC-LCD (Lung Adenocarcinoma)
Method in brief: as §1

[16] = test system: ASH-3 (Thyroid Gland Carcinoma)
Method in brief: as §1

Row | SMILES | combination Emax [1] | combination Emax [2] | combination Emax [3] | combination Emax [4] | combination Emax [5] | combination Emax [6] | combination Emax [7] | combination Emax [8] | combination Emax (GOTO (Neuroblastoma)) | combination Emax (GI-1 (Glioblastoma)) | combination Emax [9] | combination Emax [10] | combination Emax (NH-12 (Neuroblastoma)) | combination Emax [11] | combination Emax [12] | combination Emax [13] | combination Emax [14] | combination Emax [15] | combination Emax [16]
1 | CN(C)CCCOc1ccc(-c2ccc3ncc4c(c3c2)n(C2CCOCC2)c(=O)n4C)cn1 [AZD0156] + C=CCn1c(=O)c2cnc(Nc3ccc(N4CCN(C)CC4)cc3)nc2n1-c1cccc(C(C)(C)O)n1 [AZD1775] (first compound max 1 µM, partner max 1 µM) | 0.448 | 0.371 | 0.995 | 0.293 | 0.304 | 0.916 | 0.147 | 0.335 | 0.865 | 0.88 | 0.954 | 0.7 | 0.877 | 0.27 | 0.393 | 0.759 | 0.548 | 0.357 | 0.203
2 | CN(C)CCCOc1ccc(-c2ccc3ncc4c(c3c2)n(C2CCOCC2)c(=O)n4C)cn1 [AZD0156] + CCN(CCO)CCCOc1ccc2c(Nc3cc(CC(=O)Nc4cccc(F)c4)[nH]n3)ncnc2c1 [AZD2811] (first compound max 1 µM, 7x7, partner max 1 µM) | 0.422 | 0.208 | 0.975 | 0.167 | 0.253 | 0.808 | 0.0724 | 0.148 | 0.649 | 0.411 | 0.823 | 0.113 | 0.674 | 0.204 | 0.136 | 0.365 | 0.332 | 0.545 | 0.155
3 | CN(C)CCCOc1ccc(-c2ccc3ncc4c(c3c2)n(C2CCOCC2)c(=O)n4C)cn1 [AZD0156] + C[C@@H]1COCCN1C2=NC(=NC(=C2)C3(CC3)[S@](=N)(=O)C)C4=C5C=CNC5=NC=C4 [AZD6738] (first compound max 1 µM, 7x7, partner max 10 µM) | 0.589 | 0.236 | 0.975 | 0.25 | 0.676 | 0.908 | 0.158 | 0.346 | 0.913 | 0.926 | 0.855 | 0.759 | 0.901 | 0.674 | 0.315 | 0.939 | 0.783 | 0.534 | 0.719
4 | C=CCn1c(=O)c2cnc(Nc3ccc(N4CCN(C)CC4)cc3)nc2n1-c1cccc(C(C)(C)O)n1 [AZD1775] + C[C@@H]1COCCN1C2=NC(=NC(=C2)C3(CC3)[S@](=N)(=O)C)C4=C5C=CNC5=NC=C4 [AZD6738] (first compound max 1 µM, partner max 10 µM) | 0.756 | 0.54 | 0.988 | 0.533 | 0.571 | 0.952 | 0.297 | 0.449 | 0.888 | 0.984 | 0.966 | 0.777 | 0.937 | 0.694 | 0.439 | 0.978 | 0.816 | 0.733 | 0.848
5 | C=CCn1c(=O)c2cnc(Nc3ccc(N4CCN(C)CC4)cc3)nc2n1-c1cccc(C(C)(C)O)n1 [AZD1775] + O=C(c1cc(Cc2n[nH]c(=O)c3ccccc23)ccc1F)N1CCN(C(=O)C2CC2)CC1 [Olaparib] (first compound max 1 µM, partner max 10 µM) | 0.493 | 0.383 | 0.96 | 0.381 | 0.269 | 0.92 | 0.225 | 0.35 | 0.771 | 0.917 | 0.976 | 0.619 | 0.906 | 0.301 | 0.389 | 0.694 | 0.473 | 0.34 | 0.262
6 | CCN(CCO)CCCOc1ccc2c(Nc3cc(CC(=O)Nc4cccc(F)c4)[nH]n3)ncnc2c1 [AZD2811] + C=CCn1c(=O)c2cnc(Nc3ccc(N4CCN(C)CC4)cc3)nc2n1-c1cccc(C(C)(C)O)n1 [AZD1775] (first compound max 1 µM, partner max 1 µM) | 0.533 | 0.383 | 0.987 | 0.276 | 0.223 | 0.896 | 0.206 | 0.32 | 0.883 | 0.947 | 0.978 | 0.571 | 0.877 | 0.301 | 0.368 | 0.776 | 0.482 | 0.553 | 0.103
7 | CCN(CCO)CCCOc1ccc2c(Nc3cc(CC(=O)Nc4cccc(F)c4)[nH]n3)ncnc2c1 [AZD2811] + C[C@@H]1COCCN1C2=NC(=NC(=C2)C3(CC3)[S@](=N)(=O)C)C4=C5C=CNC5=NC=C4 [AZD6738] (first compound max 1 µM, 7x7, partner max 10 µM) | 0.533 | 0.27 | 0.994 | 0.302 | 0.459 | 0.97 | 0.12 | 0.343 | 0.893 | 0.922 | 0.916 | 0.663 | 0.858 | 0.507 | 0.283 | 0.841 | 0.708 | 0.708 | 0.486
8 | CCN(CCO)CCCOc1ccc2c(Nc3cc(CC(=O)Nc4cccc(F)c4)[nH]n3)ncnc2c1 [AZD2811] + O=C(c1cc(Cc2n[nH]c(=O)c3ccccc23)ccc1F)N1CCN(C(=O)C2CC2)CC1 [Olaparib] (first compound max 1 µM, 7x7, partner max 10 µM) | 0.515 | 0.332 | 0.982 | 0.241 | 0.31 | 0.854 | 0.0558 | 0.186 | 0.654 | 0.328 | 0.893 | 0.272 | 0.659 | 0.282 | 0.0855 | 0.307 | 0.379 | 0.545 | 0.249
9 | C[C@@H]1COCCN1c1cc(C2([S@](C)(=N)=O)CC2)nc(-c2ccnc3[nH]ccc23)n1 [AZD6738] + O=C(c1cc(Cc2n[nH]c(=O)c3ccccc23)ccc1F)N1CCN(C(=O)C2CC2)CC1 [Olaparib] (first compound max 10 µM, 7x7, partner max 10 µM) | 0.567 | 0.236 | 0.988 | 0.376 | 0.446 | 0.952 | 0.142 | 0.385 | 0.808 | 0.926 | 0.916 | 0.663 | 0.867 | 0.437 | 0.362 | 0.835 | 0.675 | 0.562 | 0.652
10 | Cc1cc2ncnn2cc1Nc1ncc2c(n1)n(C1CCOCC1)c(=O)n2C [AZD7648] + C=CCn1c(=O)c2cnc(Nc3ccc(N4CCN(C)CC4)cc3)nc2n1-c1cccc(C(C)(C)O)n1 [AZD1775] (first compound max 10 µM, partner max 1 µM) | 0.643 | 0.466 | 0.964 | 0.318 | 0.392 | 0.898 | 0.187 | 0.359 | 0.783 | 0.86 | 0.957 | 0.635 | 0.848 | 0.431 | 0.431 | 0.833 | 0.384 | 0.425 | 0.324
11 | Cc1cc2ncnn2cc1Nc1ncc2c(n1)n(C1CCOCC1)c(=O)n2C [AZD7648] + CCN(CCO)CCCOc1ccc2c(Nc3cc(CC(=O)Nc4cccc(F)c4)[nH]n3)ncnc2c1 [AZD2811] (first compound max 10 µM, 7x7, partner max 1 µM) | 0.658 | 0.37 | 0.964 | 0.353 | 0.349 | 0.839 | 0.0095 | 0.302 | 0.491 | 0.425 | 0.851 | 0.308 | 0.667 | 0.341 | 0.116 | 0.475 | 0.369 | 0.619 | 0.324
12 | Cc1cc2ncnn2cc1Nc1ncc2c(n1)n(C1CCOCC1)c(=O)n2C [AZD7648] + CN(C)CCCOc1ccc(-c2ccc3ncc4c(c3c2)n(C2CCOCC2)c(=O)n4C)cn1 [AZD0156] (first compound max 10 µM, 7x7, partner max 1 µM) | 0.532 | 0.279 | 0.386 | 0.3 | 0.311 | 0.42 | 0.0295 | 0.336 | 0.163 | 0.261 | 0.478 | 0.366 | 0.153 | 0.164 | 0.133 | 0.409 | 0.211 | 0.253 | 0.332
13 | Cc1cc2ncnn2cc1Nc1ncc2c(n1)n(C1CCOCC1)c(=O)n2C [AZD7648] + C[C@@H]1COCCN1C2=NC(=NC(=C2)C3(CC3)[S@](=N)(=O)C)C4=C5C=CNC5=NC=C4 [AZD6738] (first compound max 10 µM, 7x7, partner max 10 µM) | 0.561 | 0.295 | 0.97 | 0.283 | 0.513 | 0.937 | 0.0981 | 0.401 | 0.889 | 0.888 | 0.858 | 0.666 | 0.863 | 0.628 | 0.31 | 0.885 | 0.719 | 0.579 | 0.509
14 | Cc1cc2ncnn2cc1Nc1ncc2c(n1)n(C1CCOCC1)c(=O)n2C [AZD7648] + O=C(c1cc(Cc2n[nH]c(=O)c3ccccc23)ccc1F)N1CCN(C(=O)C2CC2)CC1 [Olaparib] (first compound max 10 µM, 7x7, partner max 10 µM) | 0.537 | 0.186 | 0.897 | 0.189 | 0.204 | 0.442 | 0.12 | 0.224 | 0.525 | 0.261 | 0.49 | 0.19 | 0.317 | 0.0839 | 0.257 | 0.481 | 0.186 | 0.0108 | 0.321
